Test results: ChEMBL document CHEMBL4813957, “Antitubercular properties of thiazolidin-4-ones - A review” (Eur J Med Chem, 2021)
≈ marks a conversion by molar mass, not a printed value.

The compounds below were run on Mycobacterium tuberculosis (assay: Antimycobacterial activity against Mycobacterium tuberculosis H37Rv ATCC […] by microplate alamar blue assay). Settings: 168 h, time 7 day.
Format: functional

SMILES	MIC
NC(=O)c1cnccn1 [PYRAZINAMIDE]	3.12 µg/mL (≈ 25.3 µM)
COc1ccccc1C1SCC(=O)N1C1=NN2C(=CSC2c2ccc(N(C)C)cc2)S1 (stereo not drawn)	3.12 µg/mL (≈ 6.63 µM)
O=C1CSC(c2ccccc2)N1C1=NN2C(=CSC2c2ccc(O)cc2)S1 (stereo not drawn)	6.25 µg/mL (≈ 15.1 µM)
Cc1ccc(C2SC=C3SC(N4C(=O)CSC4c4ccccc4C)=NN32)cc1 (stereo not drawn)	3.12 µg/mL (≈ 7.33 µM)
O=C1CSC(c2ccccc2Cl)N1C1=NN2C(=CSC2c2ccccc2)S1 (stereo not drawn)	3.12 µg/mL (≈ 7.22 µM)
O=C1CSC(c2ccccc2)N1C1=NN2C(=CSC2c2ccccc2)S1 (stereo not drawn)	6.25 µg/mL (≈ 15.7 µM)
O=C1CSC(c2ccc(Cl)cc2)N1C1=NN2C(=CSC2c2ccccc2)S1 (stereo not drawn)	3.12 µg/mL (≈ 7.22 µM)
Cc1ccc(C2SC=C3SC(N4C(=O)CSC4c4ccccc4)=NN32)cc1 (stereo not drawn)	625 µg/mL (≈ 1520 µM)
COc1ccc(C2SCC(=O)N2C2=NN3C(=CSC3c3ccc(N(C)C)cc3)S2)cc1 (stereo not drawn)	3.12 µg/mL (≈ 6.63 µM)
Cc1ccc(C2SC=C3SC(N4C(=O)CSC4c4ccc(C)cc4)=NN32)cc1 (stereo not drawn)	1.6 µg/mL (≈ 3.76 µM)
CN(C)c1ccc(C2SC=C3SC(N4C(=O)CSC4c4ccccc4)=NN32)cc1 (stereo not drawn)	6.25 µg/mL (≈ 14.2 µM)
O=C1CSC(c2ccccc2O)N1C1=NN2C(=CSC2c2ccc(O)cc2)S1 (stereo not drawn)	3.12 µg/mL (≈ 7.26 µM)
CN[C@@H]1[C@H](O[C@H]2[C@H](O[C@H]3[C@H](O)[C@@H](O)[C@H](N=C(N)N)[C@@H](O)[C@@H]3N=C(N)N)O[C@@H](C)[C@]2(O)C=O)O[C@@H](CO)[C@H](O)[C@H]1O [STREPTOMYCIN]	6.25 µg/mL (≈ 10.7 µM)
O=C1CSC(c2ccc(O)cc2)N1C1=NN2C(=CSC2c2ccc(O)cc2)S1 (stereo not drawn)	1.6 µg/mL (≈ 3.72 µM)

The compounds below were run on Mycobacterium tuberculosis (assay: Antimycobacterial activity against Mycobacterium tuberculosis H37Rv by microplate alamar blue assay). Settings: not given.
Format: functional

SMILES	MIC
O=C1CSC(c2ccc3c(c2)OCO3)N1c1nc(N2CCOCC2)n[nH]1 (stereo not drawn)	≤ 1 µg/mL
O=C1N/C(=N\c2ccc(S(=O)(=O)Nc3cc(Cl)c(Cl)cc3Cl)cc2)S/C1=C\c1ccc(O)cc1	3.12 µg/mL (≈ 5.62 µM)
COc1ccc2oc(=O)cc(C3SCC(=O)N3c3ccc(Cl)cc3)c2c1 (stereo not drawn)	25 µg/mL (≈ 64.5 µM)
O=C1/C(=C/c2ccc(F)cc2)SC(=S)N1Cc1nc2ccccc2[nH]1	6.25 µg/mL (≈ 16.9 µM)
Cc1ccc2oc(=O)cc(C3SCC(=O)N3c3ccccc3)c2c1 (stereo not drawn)	25 µg/mL (≈ 74.1 µM)
O=C1/C(=C/c2ccccc2)SC(=S)N1Cc1nc2ccccc2[nH]1	6.25 µg/mL (≈ 17.8 µM)
O=C1/C(=C/c2ccc(O)cc2)SC(=S)N1Cc1nc2ccccc2[nH]1	6.25 µg/mL (≈ 17 µM)
COc1ccc(N2C(=O)CSC2c2cc(=O)oc3ccc(C)cc23)cc1 (stereo not drawn)	25 µg/mL (≈ 68 µM)
Cc1ccc(/C=C2\SC(=S)N(Cc3nc4ccccc4[nH]3)C2=O)cc1	6.25 µg/mL (≈ 17.1 µM)
Cc1ccc(C2SC(C)C(=O)N2c2nc(N3CCN(C)CC3)n[nH]2)cc1 (stereo not drawn)	≤ 1 µg/mL
O=C(O)c1ccc(N2C(=O)CSC2c2ccc(F)cc2)cc1O (stereo not drawn)	6.25 µg/mL (≈ 18.7 µM)
CN[C@@H]1[C@H](O[C@H]2[C@H](O[C@H]3[C@H](O)[C@@H](O)[C@H](N=C(N)N)[C@@H](O)[C@@H]3N=C(N)N)O[C@@H](C)[C@]2(O)C=O)O[C@@H](CO)[C@H](O)[C@H]1O [STREPTOMYCIN]	6.25 µg/mL (≈ 10.7 µM)
CN1CCN(c2n[nH]c(N3C(=O)CSC3c3ccc4c(c3)OCO4)n2)CC1 (stereo not drawn)	≤ 1 µg/mL

What follows are compounds tested on Mycobacterium tuberculosis (assay: Antimycobacterial activity against Mycobacterium tuberculosis H37Rv ATCC27294 measured after 28 days by two-fold serial dilution method). Settings: H37Rv ATCC 27294, 672 h, time 28 day.
Format: functional

SMILES	MIC
COc1ccc(/C=C2\SC(=N)N(c3ncc([N+](=O)[O-])s3)C2=O)cc1	3.78 µM (≈ 1.37 µg/mL)
N=C1S/C(=C\c2ccc(OCc3ccccc3)cc2)C(=O)N1c1cccc(C(F)(F)F)c1	6.88 µM (≈ 3.13 µg/mL)
N=C1S/C(=C\c2ccccc2F)C(=O)N1c1ncc([N+](=O)[O-])s1	3.9 µM (≈ 1.37 µg/mL)
COc1cc(/C=C2\SC(=N)N(c3cccc(C(F)(F)F)c3)C2=O)cc(OC)c1OC	7.11 µM (≈ 3.12 µg/mL)
N=C1S/C(=C\c2cc([N+](=O)[O-])co2)C(=O)N1c1nc2ccc([N+](=O)[O-])cc2s1	6.81 µM (≈ 2.84 µg/mL)
N=C1S/C(=C\c2cc([N+](=O)[O-])co2)C(=O)N1c1cccc(C(F)(F)F)c1	4.07 µM (≈ 1.56 µg/mL)
N=C1S/C(=C\c2ccc(OCc3ccccc3)cc2)C(=O)N1c1ncc([N+](=O)[O-])s1	6.4 µM (≈ 2.81 µg/mL)
COc1ccc(/C=C2\SC(=N)N(c3cccc(C(F)(F)F)c3)C2=O)cc1	4.12 µM (≈ 1.56 µg/mL)
N=C1S/C(=C\c2ccccc2F)C(=O)N1c1nc2ccc([N+](=O)[O-])cc2s1	4.26 µM (≈ 1.71 µg/mL)
N=C1S/C(=C\c2ccccc2F)C(=O)N1c1cccc(C(F)(F)F)c1	4.25 µM (≈ 1.56 µg/mL)
COc1cc(/C=C2\SC(=N)N(c3nc4ccc([N+](=O)[O-])cc4s3)C2=O)cc(OC)c1OC	7.4 µM (≈ 3.5 µg/mL)
N=C1S/C(=C\c2cc([N+](=O)[O-])co2)C(=O)N1c1ncc([N+](=O)[O-])s1	7.49 µM (≈ 2.75 µg/mL)
COc1cc(/C=C2\SC(=N)N(c3ncc([N+](=O)[O-])s3)C2=O)cc(OC)c1OC	3.31 µM (≈ 1.4 µg/mL)
N=C1S/C(=C\c2cc([N+](=O)[O-])cs2)C(=O)N1c1nc2ccc([N+](=O)[O-])cc2s1	6.52 µM (≈ 2.83 µg/mL)
N=C1S/C(=C\c2cc([N+](=O)[O-])cs2)C(=O)N1c1ncc([N+](=O)[O-])s1	7.21 µM (≈ 2.76 µg/mL)
CC[C@@H](CO)NCCN[C@@H](CC)CO [ETHAMBUTOL]	7.64 µM (≈ 1.56 µg/mL)

Each compound was assayed on Mycobacterium tuberculosis (assay: Antimycobacterial activity against Mycobacterium tuberculosis H37Rv incubated for 5 days by microplate alamar blue assay). Settings: 120 h, time 5 day.
Format: functional

SMILES	MIC
NC(=O)c1cnccn1 [PYRAZINAMIDE]	3.12 µg/mL
CN(C)c1ccc(/C=C2\SC(=S)N(c3ccc(C=O)cc3)C2=O)cc1	12.5 µg/mL
O=C1CSC(c2ccc(-n3cncn3)cc2)N1Nc1ccccc1 (stereo not drawn)	14.3 µM
O=C1NC(=S)S/C1=C\c1cccc([N+](=O)[O-])c1	0.05 µg/mL
COc1ccc(/C=C2\SC(=S)N(c3cc([N+](=O)[O-])ccc3N)C2=O)cc1	12.5 µg/mL
COc1ccc(/C=C2\SC(=S)N(c3ccc(N)cc3)C2=O)cc1	12.5 µg/mL
O=C1CSC(c2ccc(-n3ccnc3)cc2)N1Nc1ccccc1 (stereo not drawn)	14.3 µM
O=C1CSC(c2c(-c3ccccc3)[nH]c3ccccc23)N1c1nc(-c2ccc(Cl)cc2)cs1 (stereo not drawn)	50 µg/mL
Nc1ccc([N+](=O)[O-])cc1N1C(=O)/C(=C/c2ccccc2)SC1=S	12.5 µg/mL
O=C1NC(=S)S/C1=C\c1ccc[nH]1	0.2 µg/mL
Cc1ccc(NN2C(=O)CSC2c2ccc(-n3ccnc3)cc2)cc1 (stereo not drawn)	14.3 µM
O=C1CSC(c2c(-c3ccccc3)[nH]c3ccccc23)N1c1nc(-c2ccccc2)cs1 (stereo not drawn)	50 µg/mL
O=C(NN1C(=O)CSC1c1c(-c2ccccc2)[nH]c2ccccc12)c1[nH]c2ccc(Cl)cc2c1-c1ccccc1 (stereo not drawn)	12.5 µg/mL
CN[C@@H]1[C@H](O[C@H]2[C@H](O[C@H]3[C@H](O)[C@@H](O)[C@H](N=C(N)N)[C@@H](O)[C@@H]3N=C(N)N)O[C@@H](C)[C@]2(O)C=O)O[C@@H](CO)[C@H](O)[C@H]1O [STREPTOMYCIN]	6.25 µg/mL
COc1ccc(/C=C2\SC(=S)NC2=O)cc1	0.1 µg/mL

Each compound was assayed on Mycobacterium tuberculosis (assay: Antimycobacterial activity against Mycobacterium tuberculosis H37Rv by filter paper disc diffusion method). Settings: not given.
Format: functional

SMILES	MIC
O=C(NCCCn1ncc2ccc([N+](=O)[O-])cc21)N1C(=O)/C(=C/c2cccc([N+](=O)[O-])c2)SC1c1cccc([N+](=O)[O-])c1 (stereo not drawn)	1.75 µg/mL (≈ 2.9 µM)
O=C1CSC(c2cccc([N+](=O)[O-])c2)N1C(=O)NCCCn1ncc2ccc([N+](=O)[O-])cc21 (stereo not drawn)	4.25 µg/mL (≈ 9.03 µM)
O=C1CSC(c2ccccc2Br)N1C(=O)NCCCn1ncc2ccc([N+](=O)[O-])cc21 (stereo not drawn)	4.75 µg/mL (≈ 9.42 µM)
O=C1CSC(c2ccccc2)N1C(=O)NCCCn1ncc2ccc([N+](=O)[O-])cc21 (stereo not drawn)	7.5 µg/mL (≈ 17.6 µM)
O=C1CSC(c2ccccc2[N+](=O)[O-])N1C(=O)NCCCn1ncc2ccc([N+](=O)[O-])cc21 (stereo not drawn)	3.75 µg/mL (≈ 7.97 µM)
O=C1CSC(c2cccc(Br)c2)N1C(=O)NCCCn1ncc2ccc([N+](=O)[O-])cc21 (stereo not drawn)	4.5 µg/mL (≈ 8.92 µM)
O=C1CSC(c2ccc(Br)cc2)N1C(=O)NCCCn1ncc2ccc([N+](=O)[O-])cc21 (stereo not drawn)	5.25 µg/mL (≈ 10.4 µM)
O=C(NCCCn1ncc2ccc([N+](=O)[O-])cc21)N1C(=O)/C(=C/c2ccccc2Cl)SC1c1ccccc1Cl (stereo not drawn)	2.25 µg/mL (≈ 3.86 µM)
O=C(NCCCn1ncc2ccc([N+](=O)[O-])cc21)N1C(=O)/C(=C/c2ccccc2[N+](=O)[O-])SC1c1ccccc1[N+](=O)[O-] (stereo not drawn)	2.25 µg/mL (≈ 3.73 µM)
O=C(NCCCn1ncc2ccc([N+](=O)[O-])cc21)N1C(=O)/C(=C/c2ccc(Cl)cc2)SC1c1ccc(Cl)cc1 (stereo not drawn)	3.25 µg/mL (≈ 5.58 µM)
O=C1CSC(c2ccc(Cl)cc2)N1C(=O)NCCCn1ncc2ccc([N+](=O)[O-])cc21 (stereo not drawn)	4.75 µg/mL (≈ 10.3 µM)
O=C1CSC(c2cccc(Cl)c2)N1C(=O)NCCCn1ncc2ccc([N+](=O)[O-])cc21 (stereo not drawn)	4.5 µg/mL (≈ 9.78 µM)
O=C(NCCCn1ncc2ccc([N+](=O)[O-])cc21)N1C(=O)/C(=C/c2ccc(Br)cc2)SC1c1ccc(Br)cc1 (stereo not drawn)	2.5 µg/mL (≈ 3.72 µM)
O=C(NCCCn1ncc2ccc([N+](=O)[O-])cc21)N1C(=O)/C(=C/c2ccccc2)SC1c1ccccc1 (stereo not drawn)	6.25 µg/mL (≈ 12.2 µM)
O=C(NCCCn1ncc2ccc([N+](=O)[O-])cc21)N1C(=O)/C(=C/c2cccc(Cl)c2)SC1c1cccc(Cl)c1 (stereo not drawn)	1.5 µg/mL (≈ 2.58 µM)
O=C(NCCCn1ncc2ccc([N+](=O)[O-])cc21)N1C(=O)/C(=C/c2ccccc2Br)SC1c1ccccc1Br (stereo not drawn)	4.25 µg/mL (≈ 6.33 µM)
O=C1CSC(c2ccccc2Cl)N1C(=O)NCCCn1ncc2ccc([N+](=O)[O-])cc21 (stereo not drawn)	4.25 µg/mL (≈ 9.24 µM)
O=C(NCCCn1ncc2ccc([N+](=O)[O-])cc21)N1C(=O)/C(=C/c2cccc(Br)c2)SC1c1cccc(Br)c1 (stereo not drawn)	1.25 µg/mL (≈ 1.86 µM)
O=C(NCCCn1ncc2ccc([N+](=O)[O-])cc21)N1C(=O)/C(=C/c2ccc([N+](=O)[O-])cc2)SC1c1ccc([N+](=O)[O-])cc1 (stereo not drawn)	1.5 µg/mL (≈ 2.49 µM)
O=C1CSC(c2ccc([N+](=O)[O-])cc2)N1C(=O)NCCCn1ncc2ccc([N+](=O)[O-])cc21 (stereo not drawn)	4.25 µg/mL (≈ 9.03 µM)

Each compound was assayed on Mycobacterium tuberculosis (assay: Antimycobacterial activity against Mycobacterium tuberculosis H37Ra ATCC 25177 incubated for 7 days by microplate alamar blue assay). Settings: H37Ra ATCC 25177, 168 h, time 7 day.
Format: functional

SMILES	MIC
O=C(CC1SC(=O)NC1=O)Oc1ccc(/C=N/NC(=S)Nc2ccc(Cl)cc2)cc1 (stereo not drawn)	2 µg/mL (≈ 4.32 µM)
COc1cc(/C=N/NC(=S)Nc2ccc(Cl)cc2)ccc1OC(=O)CC1SC(=O)NC1=O (stereo not drawn)	2 µg/mL (≈ 4.06 µM)
COc1cc(/C=N/NC(=S)Nc2ccccc2)ccc1OC(=O)CC1SC(=O)NC1=O (stereo not drawn)	2 µg/mL (≈ 4.36 µM)
COc1cc(/C=N/NC(=S)Nc2cccc(Cl)c2)ccc1OC(=O)CC1SC(=O)NC1=O (stereo not drawn)	2 µg/mL (≈ 4.06 µM)
COc1cc(/C=N/NC(=S)Nc2ccccc2)ccc1OC(=O)/C=C1\SC(=O)NC1=O	2 µg/mL (≈ 4.38 µM)
